From ChEMBL document CHEMBL3431459, “Roche carnitine palmitoyltransferase modulator screening data (supplementary data associated with the publication CHEMBL2216752)”
≈ marks a conversion by molar mass, not a printed value.

How the values were obtained:
[1] = target: T1, Carnitine O-palmitoyltransferase 1, muscle isoform (Homo sapiens, UniProt Q92523); assay: SUPPLEMENTARY: Inhibition of Carnitine palmitoyltransferase 1, muscle isoform; design: species or system Muscle tissue
T1 sequence (Q92523 whole entry): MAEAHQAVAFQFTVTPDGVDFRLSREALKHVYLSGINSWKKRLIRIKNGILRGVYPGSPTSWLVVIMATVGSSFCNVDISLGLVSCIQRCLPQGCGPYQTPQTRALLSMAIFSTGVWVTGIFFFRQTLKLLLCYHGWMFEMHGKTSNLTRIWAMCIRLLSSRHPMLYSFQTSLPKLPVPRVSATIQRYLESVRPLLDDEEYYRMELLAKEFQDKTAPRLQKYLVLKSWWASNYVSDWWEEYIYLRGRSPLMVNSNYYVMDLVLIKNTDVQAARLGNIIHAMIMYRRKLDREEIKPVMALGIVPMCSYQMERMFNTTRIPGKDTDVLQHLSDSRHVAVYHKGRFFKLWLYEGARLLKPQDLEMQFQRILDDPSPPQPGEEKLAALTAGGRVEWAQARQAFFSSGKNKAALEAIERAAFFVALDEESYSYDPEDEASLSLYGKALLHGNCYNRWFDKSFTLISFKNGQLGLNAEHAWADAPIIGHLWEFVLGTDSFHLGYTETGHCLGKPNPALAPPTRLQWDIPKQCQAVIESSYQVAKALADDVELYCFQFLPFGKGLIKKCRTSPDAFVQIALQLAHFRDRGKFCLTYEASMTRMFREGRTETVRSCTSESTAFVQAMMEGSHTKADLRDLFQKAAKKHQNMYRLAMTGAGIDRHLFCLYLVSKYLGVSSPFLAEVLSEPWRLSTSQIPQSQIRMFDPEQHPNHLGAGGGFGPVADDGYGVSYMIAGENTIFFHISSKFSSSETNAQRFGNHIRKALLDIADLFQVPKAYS

[2] = target: T2, Carnitine O-palmitoyltransferase 2, mitochondrial (Homo sapiens, UniProt P23786); assay: (§1) SUPPLEMENTARY: Inhibition of Carnitine palmitoyltransferase 2
T2 sequence (P23786 whole entry): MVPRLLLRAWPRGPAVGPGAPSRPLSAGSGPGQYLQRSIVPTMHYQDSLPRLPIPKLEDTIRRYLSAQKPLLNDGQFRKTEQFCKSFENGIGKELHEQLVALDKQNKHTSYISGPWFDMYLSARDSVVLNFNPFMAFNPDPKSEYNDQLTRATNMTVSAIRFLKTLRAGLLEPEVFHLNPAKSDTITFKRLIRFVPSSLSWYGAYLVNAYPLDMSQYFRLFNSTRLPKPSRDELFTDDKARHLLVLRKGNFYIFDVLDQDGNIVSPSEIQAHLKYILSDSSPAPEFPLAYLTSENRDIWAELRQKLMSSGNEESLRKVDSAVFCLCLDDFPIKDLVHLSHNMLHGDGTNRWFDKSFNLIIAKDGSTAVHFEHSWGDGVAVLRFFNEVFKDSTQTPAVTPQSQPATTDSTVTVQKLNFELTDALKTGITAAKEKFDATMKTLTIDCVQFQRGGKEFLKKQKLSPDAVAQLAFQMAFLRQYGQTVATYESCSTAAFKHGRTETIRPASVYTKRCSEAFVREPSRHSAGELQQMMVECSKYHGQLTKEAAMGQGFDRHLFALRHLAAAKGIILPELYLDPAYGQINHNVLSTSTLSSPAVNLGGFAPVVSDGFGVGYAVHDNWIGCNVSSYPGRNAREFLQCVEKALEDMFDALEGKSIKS

[3] = target: T3, Carnitine O-palmitoyltransferase 2, mitochondrial (Rattus norvegicus, UniProt P18886); assay: as §1
T3 sequence (P18886 whole entry): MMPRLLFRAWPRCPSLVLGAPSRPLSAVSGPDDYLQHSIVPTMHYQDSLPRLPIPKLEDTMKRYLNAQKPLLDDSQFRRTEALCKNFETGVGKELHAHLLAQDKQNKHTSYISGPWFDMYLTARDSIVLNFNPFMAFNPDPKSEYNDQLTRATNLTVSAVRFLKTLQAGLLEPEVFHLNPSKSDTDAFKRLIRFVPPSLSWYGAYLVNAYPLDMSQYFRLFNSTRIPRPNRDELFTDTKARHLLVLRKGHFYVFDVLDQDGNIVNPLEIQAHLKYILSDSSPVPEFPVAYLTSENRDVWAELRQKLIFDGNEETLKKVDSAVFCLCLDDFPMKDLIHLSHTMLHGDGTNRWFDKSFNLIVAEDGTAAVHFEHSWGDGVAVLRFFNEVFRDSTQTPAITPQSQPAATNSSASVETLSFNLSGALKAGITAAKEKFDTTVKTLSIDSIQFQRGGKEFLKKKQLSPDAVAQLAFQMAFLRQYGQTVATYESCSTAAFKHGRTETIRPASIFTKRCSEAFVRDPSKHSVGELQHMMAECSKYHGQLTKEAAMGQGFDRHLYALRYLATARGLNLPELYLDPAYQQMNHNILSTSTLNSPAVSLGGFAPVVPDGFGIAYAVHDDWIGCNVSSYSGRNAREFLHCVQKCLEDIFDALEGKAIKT

[4] = target: T4, Carnitine O-palmitoyltransferase 1, liver isoform (Homo sapiens, UniProt P50416); assay: (§2) SUPPLEMENTARY: Inhibition of Carnitine palmitoyltransferase 1, liver isoform
T4 sequence (P50416 whole entry): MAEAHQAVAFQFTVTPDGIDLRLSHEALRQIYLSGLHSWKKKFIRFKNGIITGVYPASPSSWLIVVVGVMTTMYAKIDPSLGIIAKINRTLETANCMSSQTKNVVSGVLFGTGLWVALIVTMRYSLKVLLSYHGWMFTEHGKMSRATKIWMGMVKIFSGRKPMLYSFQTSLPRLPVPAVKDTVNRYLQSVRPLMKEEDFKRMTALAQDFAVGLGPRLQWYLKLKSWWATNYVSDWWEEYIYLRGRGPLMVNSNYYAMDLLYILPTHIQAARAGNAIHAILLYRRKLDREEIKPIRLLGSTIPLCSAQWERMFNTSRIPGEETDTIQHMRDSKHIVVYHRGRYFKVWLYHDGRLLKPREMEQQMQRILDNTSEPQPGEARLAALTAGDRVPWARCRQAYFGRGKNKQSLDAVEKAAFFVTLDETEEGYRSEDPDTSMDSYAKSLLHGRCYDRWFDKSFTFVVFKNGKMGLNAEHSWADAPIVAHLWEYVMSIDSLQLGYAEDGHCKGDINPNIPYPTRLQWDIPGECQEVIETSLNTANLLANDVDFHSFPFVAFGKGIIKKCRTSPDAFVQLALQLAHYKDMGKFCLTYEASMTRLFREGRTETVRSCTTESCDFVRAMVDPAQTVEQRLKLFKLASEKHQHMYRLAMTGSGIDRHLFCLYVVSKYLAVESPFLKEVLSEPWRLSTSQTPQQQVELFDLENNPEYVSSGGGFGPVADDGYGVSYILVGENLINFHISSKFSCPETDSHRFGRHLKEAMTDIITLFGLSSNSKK

[5] = target: T5, Carnitine O-palmitoyltransferase 1, liver isoform (Rattus norvegicus, UniProt P32198); assay: as §2
T5 sequence (P32198 whole entry): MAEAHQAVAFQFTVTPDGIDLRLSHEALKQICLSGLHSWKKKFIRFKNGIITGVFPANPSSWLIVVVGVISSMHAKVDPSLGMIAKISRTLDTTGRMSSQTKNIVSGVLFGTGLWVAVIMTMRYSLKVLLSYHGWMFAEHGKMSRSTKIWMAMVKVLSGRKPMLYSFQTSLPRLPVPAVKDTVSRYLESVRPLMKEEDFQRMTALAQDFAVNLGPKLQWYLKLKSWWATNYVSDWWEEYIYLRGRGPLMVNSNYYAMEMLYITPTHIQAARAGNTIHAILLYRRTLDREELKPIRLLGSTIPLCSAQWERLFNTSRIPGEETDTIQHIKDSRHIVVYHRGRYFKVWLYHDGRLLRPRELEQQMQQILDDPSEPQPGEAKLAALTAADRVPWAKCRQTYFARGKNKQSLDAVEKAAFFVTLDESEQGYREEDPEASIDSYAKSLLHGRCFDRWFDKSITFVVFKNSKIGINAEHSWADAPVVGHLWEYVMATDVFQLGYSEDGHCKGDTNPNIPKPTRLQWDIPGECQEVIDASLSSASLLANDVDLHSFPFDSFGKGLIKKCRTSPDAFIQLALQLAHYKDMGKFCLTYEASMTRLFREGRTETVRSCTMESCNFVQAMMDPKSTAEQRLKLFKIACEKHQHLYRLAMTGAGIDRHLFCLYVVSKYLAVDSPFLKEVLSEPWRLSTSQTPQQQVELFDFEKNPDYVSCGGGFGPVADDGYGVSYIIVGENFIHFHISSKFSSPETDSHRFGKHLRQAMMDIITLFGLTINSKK

[6] = SUPPLEMENTARY: Lyophilisation Solubility Assay (LYSA); type: physicochemical; conditions: read-out: Kinetic_solubility
[7] = SUPPLEMENTARY: Lipophilicity (log D) Determination by high-throughput shake-flask; type: physicochemical; conditions: octanol/water
[8] = SUPPLEMENTARY: PAMPA permeability assay; type: physicochemical; conditions: read-out: Permeability

SMILES | IC50 [1] | IC50 [2] | IC50 [3] | IC50 [4] | IC50 [5] | solubility kinetic [6] | logD [7] | Papp [8]
O=C1Cc2cc(-c3noc([C@H]4CNCCN4C(=O)COc4ccccc4)n3)ccc2N1 | > 100000 nM | 58900 nM | 93500 nM | 105 nM | 306 nM | 312 µg/mL (≈ 745 µM) | 1.09 | 2.77 ×10⁻⁶ cm/s
Cc1cccc(S(=O)(=O)N2CCOc3ccc(C(=O)Nc4nc(CC(=O)O)cs4)cc32)c1 | 1080 nM | > 100000 nM | > 100000 nM | 56.1 nM | 55.2 nM | > 631 µg/mL | 0.14 | 3.08 ×10⁻⁶ cm/s
COc1ccc(Cl)cc1S(=O)(=O)N1CCc2c(C)cc(C(=O)Nc3ccc(C(=O)O)c(Cl)c3)cc21 | 3530 nM | 591 nM | 967 nM | 66.1 nM | 157 nM | 311 µg/mL (≈ 581 µM) | 0.66 | 1.52 ×10⁻⁶ cm/s
CC(=O)Nc1cc(-c2n[nH]c([C@H]3CCCCN3C(=O)COc3ccccc3)n2)ccc1F | > 100000 nM | 45900 nM | > 100000 nM | 79.5 nM | 375 nM | 121 µg/mL (≈ 277 µM) | 2.43 | 2.67 ×10⁻⁶ cm/s
COc1ccc(Cl)cc1S(=O)(=O)N1CCOc2ccc(C(=O)Nc3ccc(C(=O)O)c(F)c3)cc21 | 1800 nM | 6300 nM | 23400 nM | 65.1 nM | 80.5 nM | 15 µg/mL (≈ 28.8 µM) | 0.29 | 1.71 ×10⁻⁶ cm/s
COc1ccc(Cl)cc1S(=O)(=O)c1cn(CCO)c2ccc(C(=O)Nc3ccccc3)cc12 | > 100000 nM | > 100000 nM | > 100000 nM | 43.8 nM | 20.5 nM | < 1 µg/mL | 3.4 | 0.06 ×10⁻⁶ cm/s
CCN(c1cc(C(=O)Nc2nc(CC(=O)O)cs2)cc2c1OCO2)S(=O)(=O)c1cc(Cl)ccc1OC | 1130 nM | > 100000 nM | > 100000 nM | 96.3 nM | 85.9 nM | 102 µg/mL (≈ 184 µM) | 2.65 | 3.4 ×10⁻⁶ cm/s
COc1ccc(Cl)cc1S(=O)(=O)N1CCS(=O)(=O)c2ccc(C(=O)Nc3ccc(C(=O)O)c(Cl)c3)cc21 | 8030 nM | 5560 nM | 15700 nM | 204 nM | 103 nM | 45 µg/mL (≈ 76.9 µM) | -0.37 | 0.06 ×10⁻⁶ cm/s
COc1cccc2c1CCN(C(=O)[C@H]1CCCCN1C(=O)COc1ccccc1)C2 | > 100000 nM | 983 nM | 2190 nM | 219 nM | 473 nM | 23 µg/mL (≈ 56.3 µM) | 3.13 | 5.46 ×10⁻⁶ cm/s
CC(=O)Nc1cccc(-c2nc([C@H]3CCCCN3C(=O)COc3ccccc3)no2)c1 | > 100000 nM | 72800 nM | > 100000 nM | 43.8 nM | 104 nM | 17 µg/mL (≈ 40.4 µM) | 3.01 | 2.55 ×10⁻⁶ cm/s
CS(=O)(=O)Nc1cccc(-c2n[nH]c([C@H]3CCCCN3C(=O)COc3ccccc3)n2)c1 | > 100000 nM | 23900 nM | 82800 nM | 146 nM | 175 nM | 103 µg/mL (≈ 226 µM) | 2.27 | 2.56 ×10⁻⁶ cm/s
NC(=O)COc1cccc(-c2noc([C@H]3CCCCN3C(=O)COc3ccccc3)n2)c1 | > 100000 nM | 18500 nM | > 100000 nM | 63.6 nM | 147 nM | 57 µg/mL (≈ 131 µM) | 2.51 | 2.49 ×10⁻⁶ cm/s
CC(=O)Nc1cccc(-c2nc([C@H]3CCCCN3C(=O)COc3ccccc3)n(C)n2)c1 | 43400 nM | > 100000 nM | > 100000 nM | 201 nM | 282 nM | 63 µg/mL (≈ 145 µM) | 2.75 | 2.93 ×10⁻⁶ cm/s
O=C(O)Cc1csc(NC(=O)c2ccc3c(c2)N(S(=O)(=O)c2cccc(Cl)c2)CCO3)n1 | 618 nM | > 100000 nM | > 100000 nM | 22.6 nM | 11.5 nM | 54 µg/mL (≈ 109 µM) | 0.37 | 2.91 ×10⁻⁶ cm/s
